Test results reported in patent US20120319032A1, “Biodegradable, Frost Proof Heat-Transfer Fluid, Use Thereof In Near-Surface Geothermal Installations, And A Concentrate For Preparing Same” (priority 2010, published 2012).
Like-named read-outs stand apart in the source and are kept apart here. Blank lines part the entries; values can stand above or below the compound they belong to.

Tests used:
[1] = OECD 301B, manufacturer safety data sheet, cited from earlier work
[2] = 301D; 28 d; Research report 200 24 233 UBA-FB 000298; cited from earlier work
[3] = 302B; 28 d; Research report 200 24 233 UBA-FB 000298; cited from earlier work
[4] = shown in studies (Geothermics 36 (2007) 348 - 361); cited from earlier work
[5] = OECD 301A, manufacturer safety data sheet, cited from earlier work
[6] = Biodegradability, test method OECD 301 B; conditions: in-house measurement
Description: The biodegradability of the inventive composition and constituents thereof is determined according to the OECD Guidelines for Testing of Chemicals 301 and 311.
The corrosion inhibitor or, if more than one corrosion inhibitor is used, all corrosion inhibitors used have good biodegradability (are “readily degradable”) according to the respectively applicable test method OECD 301 A (for water-soluble corrosion inhibitors) or OECD 301 B (for sparingly water-soluble corrosion inhibitors), each in the version dated Jul. 17, 1992. Good biodegradability is defined in point 10 of OECD 301.

Structure (SMILES): CC(C)CCCCCC(=O)NCCCCCC(=O)O [Inhibitor X]
- Degradability ([1]; 15 d): >90% (15 d)
- Assessment of degradability [1]: good

Structure (SMILES): CC(C)CCCCCC(=O)O [Inhibitor A, isononanoic acid]
- Degradability ([1]; 25 d): approx. 63%
- Assessment of degradability [1]: moderately

Structure (SMILES): c1ccc2[nH]nnc2c1 [Benzotriazole]
- Degradability [2]: 0% (28 d)
- Degradability [3]: 12% (28 d)

Structure (SMILES): CC(O)CO (centres unmarked) [1,2-propylene glycol]
- Biodegradability [4]: good
- Degradability ([5]; duration not given): >70%
- Assessment of degradability [5]: good

Structure (SMILES): CCCCC(CC)C(=O)O (centres unmarked) [Inhibitor B, 2-ethylhexanoic acid]
- Degradability ([1]; 25 d): approx. 90%
- Assessment of degradability [1]: good

- Degradability ([6]; 25 d): >80% (25 d)
- Assessment of degradability [6]: good
Structure (SMILES): O=C(O)CCCCCCCCC(=O)O [Inhibitor C, sebacic acid]

Structure (SMILES): OCCO [ethylene glycol]
- Biodegradability [4]: good
